Measured values as given in ChEMBL document CHEMBL1157472, “Synthesis of 5''-branched derivatives of cyclic ADP-carbocyclic-ribose, a potent Ca2+-mobilizing agent: The first antagonists modified at the N1-ribose moiety” (Bioorg Med Chem Lett, 2008).
Calls of active or inactive are those of the source. The rule behind the calls is not given here.

Experiments:
[1] = Stability in human serum at 37 degC after 3 days; format: ADME, cell-free; details: read-out: Stability
Lytechinus pictus = test: Agonist activity at ryanodine receptor in sea urchin egg homogenates assessed as effect on calcium release at 30 uM by fluorimetry; format: functional, tissue-based
[2] = Antagonist activity at ryanodine receptor in sea urchin egg homogenates assessed as decrease in cADPcR-induced calcium release by fluorimetry; format: functional, tissue-based, Lytechinus pictus
[3] = Agonist activity at ryanodine receptor in sea urchin egg homogenates assessed as effect on calcium release by fluorimetry; format: functional, Lytechinus pictus

Row | SMILES | remaining at 72 h [1] | Activity (Lytechinus pictus) | IC50 [2] | EC50 [3]
1 | [N-]=[N+]=NCC[C@@H]1OP(=O)(O)OP(=O)([O-])OC[C@H]2O[C@H]([C@H](O)[C@@H]2O)n2cnc3c(N)[n+](cnc32)[C@@H]2C[C@H]1[C@@H](O)[C@H]2O | 89% | inactive | 19 µM | –
2 | Nc1c2ncn3c2nc[n+]1[C@@H]1C[C@H](COP(=O)([O-])OP(=O)(O)OC[C@H]2O[C@@H]3[C@H](O)[C@@H]2O)[C@@H](O)[C@H]1O | – | – | – | 0.079 µM
3 | Nc1c2ncn3c2nc[n+]1[C@@H]1O[C@H](COP(=O)([O-])OP(=O)(O)OC[C@H]2O[C@@H]3[C@H](O)[C@@H]2O)[C@@H](O)[C@H]1O | – | – | – | 0.21 µM

Results, then the compound that gave them:

Row | remaining at 72 h [1] | Activity (Lytechinus pictus) | IC50 [2] | EC50 [3] | SMILES
4 | – | inactive | 120 µM | – | NCC[C@@H]1OP(=O)([O-])OP(=O)(O)OC[C@H]2O[C@H]([C@H](O)[C@@H]2O)n2cnc3c(N)[n+](cnc32)[C@@H]2C[C@H]1[C@@H](O)[C@H]2O
5 | – | inactive | 73 µM | – | NCC[C@H]1OP(=O)([O-])OP(=O)(O)OC[C@H]2O[C@H]([C@H](O)[C@@H]2O)n2cnc3c(N)[n+](cnc32)[C@@H]2C[C@H]1[C@@H](O)[C@H]2O
6 | – | inactive | 14 µM | – | [N-]=[N+]=NCC[C@H]1OP(=O)([O-])OP(=O)(O)OC[C@H]2O[C@H]([C@H](O)[C@@H]2O)n2cnc3c(N)[n+](cnc32)[C@@H]2C[C@H]1[C@@H](O)[C@H]2O
